Earlier results on one compound are cited in publication PMC5891061, “Electrophysiological mechanisms of vandetanib-induced cardiotoxicity: Comparison of action potentials in rabbit Purkinje fibers and pluripotent stem cell-derived cardiomyocytes” (PLoS ONE, 2018).

In one data set the target is INa in hiPSC-CMs (Homo sapiens, UniProt Q14524). The following applies: hiPSC-CMs compared with HEK293 cells; cited from earlier work.
The next data set concerns hiPSC-CMs. The conditions noted are these: cited from earlier work.

Chain of INa in hiPSC-CMs (Q14524 212-1075 limits assumed): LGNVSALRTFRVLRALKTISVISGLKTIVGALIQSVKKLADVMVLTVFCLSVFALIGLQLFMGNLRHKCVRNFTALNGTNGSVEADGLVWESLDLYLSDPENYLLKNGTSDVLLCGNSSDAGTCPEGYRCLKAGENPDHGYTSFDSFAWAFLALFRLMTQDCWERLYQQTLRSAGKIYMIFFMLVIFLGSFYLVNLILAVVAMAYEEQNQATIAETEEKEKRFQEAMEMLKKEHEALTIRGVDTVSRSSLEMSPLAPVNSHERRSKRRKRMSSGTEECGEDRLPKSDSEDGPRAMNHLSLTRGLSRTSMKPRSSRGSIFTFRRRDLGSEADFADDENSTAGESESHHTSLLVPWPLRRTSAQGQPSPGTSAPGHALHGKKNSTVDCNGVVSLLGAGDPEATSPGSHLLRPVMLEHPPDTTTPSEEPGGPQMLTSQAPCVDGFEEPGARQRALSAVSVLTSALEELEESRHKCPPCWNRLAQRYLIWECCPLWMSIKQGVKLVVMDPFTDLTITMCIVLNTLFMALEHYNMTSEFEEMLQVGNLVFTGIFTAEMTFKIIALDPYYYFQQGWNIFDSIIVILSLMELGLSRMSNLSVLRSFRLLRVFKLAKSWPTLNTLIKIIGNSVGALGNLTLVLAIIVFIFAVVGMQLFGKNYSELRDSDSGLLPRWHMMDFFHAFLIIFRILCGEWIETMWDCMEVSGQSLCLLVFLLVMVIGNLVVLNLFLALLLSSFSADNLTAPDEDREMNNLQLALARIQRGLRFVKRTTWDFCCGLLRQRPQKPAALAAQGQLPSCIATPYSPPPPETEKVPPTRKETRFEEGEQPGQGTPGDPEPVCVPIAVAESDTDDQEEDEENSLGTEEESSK
Chain of INa in hiPSC-CMs (Q14524 1131-2016 limits assumed): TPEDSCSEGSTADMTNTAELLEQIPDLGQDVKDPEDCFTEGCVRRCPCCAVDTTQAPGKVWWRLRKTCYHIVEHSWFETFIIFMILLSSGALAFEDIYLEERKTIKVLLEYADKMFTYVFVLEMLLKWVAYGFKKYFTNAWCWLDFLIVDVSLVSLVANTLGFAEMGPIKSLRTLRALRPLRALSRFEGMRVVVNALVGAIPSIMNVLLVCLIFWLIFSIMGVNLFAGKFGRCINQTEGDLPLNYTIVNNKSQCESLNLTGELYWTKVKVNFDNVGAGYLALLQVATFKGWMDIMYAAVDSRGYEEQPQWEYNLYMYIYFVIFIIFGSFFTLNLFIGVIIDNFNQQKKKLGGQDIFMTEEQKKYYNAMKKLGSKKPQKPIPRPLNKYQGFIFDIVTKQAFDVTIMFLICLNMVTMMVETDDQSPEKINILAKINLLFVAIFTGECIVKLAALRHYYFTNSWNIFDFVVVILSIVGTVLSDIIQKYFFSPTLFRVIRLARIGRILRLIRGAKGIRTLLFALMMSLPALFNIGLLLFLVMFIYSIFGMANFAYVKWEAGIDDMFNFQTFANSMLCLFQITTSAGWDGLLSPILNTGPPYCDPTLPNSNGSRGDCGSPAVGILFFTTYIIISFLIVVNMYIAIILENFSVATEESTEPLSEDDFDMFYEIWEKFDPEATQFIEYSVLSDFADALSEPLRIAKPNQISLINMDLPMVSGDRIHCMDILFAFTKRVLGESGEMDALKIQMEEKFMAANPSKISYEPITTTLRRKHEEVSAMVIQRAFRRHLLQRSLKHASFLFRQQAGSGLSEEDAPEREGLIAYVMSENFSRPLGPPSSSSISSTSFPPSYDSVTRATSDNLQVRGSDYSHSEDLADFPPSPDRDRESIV

With `CCc1nn(CCCN2CCN(c3cccc(Cl)c3)CC2)c(=O)n1CCOc1ccccc1` [nefazodone], the “Block of INa, sensitivity” value on INa in hiPSC-CMs was “greater sensitivity than in HEK293 cells”. Also, in the data set on hiPSC-CMs, the “Effect on Vmax” value was “significantly decreased”.
